Reference: paper PMC6396024, “Artemin and an Artemin-Derived Peptide, Artefin, Induce Neuronal Survival, and Differentiation Through Ret and NCAM” (Frontiers in Molecular Neuroscience, 2019)
Bridge positions count the residues as written; N and C are the ends. Ends that are not written are not given here. I, II: the chains in the order shown.

Tests used:
[1] = system: cerebellar granule neurons (CGNs); test: Neurite outgrowth assay in CGNs; format: cell-based, Wistar rat; conditions: 24 h; for maximum level of neurite outgrowth: untreated control = 100%, mean of four independent experiments; for neurite outgrowth, single agent in competition assay: ARTN 2.1 nM alone or artefin 4.2 μM alone, paired t-test versus control; for overall neuritogenic effect: ARTN 0.013–2.1 nM, artefin 0.16–37.9 μM, one-way ANOVA
Procedure: (§1) Cerebellar granule neurons (CGNs) were prepared from 7-day-old Wistar rat pups (Charles River Laboratories, Sulzfeld, Germany) as previously described ([Schousboe et al., 1989]). Briefly, pups were decapitated, and the cerebellum was removed and cleared from blood vessels and meninges in ice-cold modified Krebs-Ringer buffer. The cerebellum was dissociated by chopping and trypsinization. Cells were washed in Krebs-Ringer buffer containing DNAse I (Sigma, St. Louis, MO, United States) and soybean trypsin inhibitor (Sigma) to stop trypsinization, and the remaining tissue pieces were pelleted by centrifugation. Cells were then washed in Krebs-Ringer buffer containing Ca^2+ and Mg^2+ and re-suspended in appropriate Neurobasal^TM medium (Invitrogen, Taastrup, Denmark) with supplements depending on the experiment.
Cerebellar granule neurons CGNs were re-suspended in Neurobasal^TM medium supplemented with 2% (v/v) B27, 0.5% (v/v) glutamax, 100 U/ml penicillin, 100 μg/ml streptomycin, 0.4% (w/v) BSA, and 20 mM HEPES and were seeded in 8-well LabTek Permanox chamber slides (Nunc) at a density of 1 × 10^4 cells/cm^2. Various concentrations of ARTN, artefin, scrambled artefin, or reversed artefin were added to neurons immediately after seeding. For the RET inhibition assay, the inhibitory goat anti-mouse RET antibody (4.1 μg/ml; R&D systems, Abingdon, United Kingdom) or control goat IgG (4.1 μg/ml; Santa Cruz Biotechnology, Dallas, TX, United States) were added to neurons 1 h before stimulation with ARTN (0.042 nM) […]. For the competition assay between growth factor and mimetic peptide, a combination of ARTN (2.1 nM) and artefin (4.2 μM) was added to the cells immediately after seeding. To inhibit Fibroblast growth factor receptor (FGFR) pharmacologically, inhibitor of FGFR, SU5402 (Sigma), was added to the growth medium in serial dilutions of 20, 40, and 80 μM immediately after plating of CGNs, followed by addition of either P2-d (8 μg/ml), ARTN (0.21 nM), or artefin (1.4 μM) 1 h after the plating.
(§2) To estimate neurite outgrowth, neurons were fixated 24 h after stimulation and stained with rabbit anti-growth-associated-protein-43 (GAP-43) antibody (Chemicon International, Inc., Temecula, CA, United States) or anti-GFP antibody (for transfection experiment) overnight at 4°C followed by incubation with secondary Alexa-conjugated goat anti-rabbit antibodies (Invitrogen, Taastrup, Denmark). In case of experiments with plasmid transfection, the transfection efficiency was ca. 20% of total cells and the neurite outgrowth was evaluated only in GFP-positive, i.e., transfected, cells. For representative pictures, cells were additionally co-stained with Hoechst 33258.
(§3) Computer-assisted fluorescent microscopy was performed using a Nikon Diaphot 300 inverted microscope (Nikon) equipped with a Nikon Plan 20× objective and coupled to a video camera (Grundig Electronics, Germany). For each condition in each experiment, including the experiment with transfections, images of approximately 200 cells were recorded in systematic series of fields of view, and neurite outgrowth was quantified using a stereological approach as previously described ([Rønn et al., 2000]).
FIGURE 3 Neurite outgrowth induced by ARTN (A), artefin-dendrimer (B), and artefin-monomer (C) in CGNs. Cells were stimulated with ARTN (0.013, 0.042, 0.13, 0.42, and 2.1 nM) or artefin (0.16, 0.47, 1.4, 4.2, 12.6, and 37.9 μM) for 24 h. For the unstimulated control, the absolute length of neurites was 11.47 ± 1.5 μm. Results from four independent experiments are expressed as percentage of untreated control set to 100% and presented as mean ± SEM. The mean neurite outgrowth lengths were compared using one-way ANOVA for repeated measurements. The effect of individual concentrations of ARTN and artefin was compared to control using one-way ANOVA with Dunnett’s post-hoc test, ^∗p < 0.05; ^∗∗p < 0.01. […]

[2] = system: NCAM; cerebellar granule neurons (CGNs); test: Neurite outgrowth in CGNs with NCAM knock down (NCAM shRNA); format: cell-based, Wistar rat; conditions: 24 h, P2-d 8 μg/ml, ARTN 0.21 nM, artefin 1.4 μM; for neurite outgrowth in NCAM knock down neurons: NCAM shRNA; for neurite outgrowth in mock-transfected neurons: empty vector, versus control
Procedure: as §1
To evaluate the involvement of NCAM and RET in neurite outgrowth induced by either ARTN or artefin, CGNs (3 × 10^6 per transfection) were transfected with 3 μg DNA using a Nucleofector^TM 2b device and a Rat Neuron Nucleofector Kit (Amaxa, Inc., Gaithersburg, MD, United States). A kinase-deleted dominant negative RET insert was obtained by direct PCR using a commercially available clone (IRAKp961P02132Q; RZPD, Berlin, Germany) encoding full-length mouse RET coding sequence 586–3807 nt. as template. The upper primer […] contained a NheI restriction site and Kozak sequence, and the lower primer […] encoded Streptag II and NotI restriction sites. The dominant negative RET insert and the pcDNA5/FRT expression vector containing the Flp-In system were cut with NheI and NotI restriction enzymes, purified, ligated using the Rapid DNA Ligation Kit (Roche, Basel, Switzerland), and transfected into One Shot TOP10 E. coli (Invitrogen, Taastrup, Denmark). E. coli colonies containing the dominant negative RET insert were identified by PCR, and one insert-positive colony was used for plasmid purification. The identity of the purified plasmid was verified by restriction cutting and sequencing of the insert. For NCAM knock down, we used a pENTR vector containing the shRNA expression cassette for NCAM knock down ([Hansen et al., 2007]). An empty vector was used as a control. To identify transfected neurons, all transfections were performed as co-transfections with 0.5 μg pEGFP-N1, an expression vector encoding the enhanced variant of green fluorescent protein (GFP; Clontech, Palo Alto, CA, United States). Transfected CGNs were seeded in Neurobasal^TM-A medium supplemented with 2% (v/v) B27, 5% (v/v) FCS, and 2 mM Glutamax at a density of 1 × 10^5 cells/cm^2.
as §2, §3
FIGURE 7 Neuritogenic effect of ARTN and artefin in (A) dominant negative RET or (B) knock down NCAM-expressing CGNs. […]

| Molecule | concentration of maximum neurite outgrowth ([1]; artefin as dendrimer) [µM] | neurite outgrowth compared to ARTN ([1]; artefin dendrimer, higher length of neurites) | maximum level of neurite outgrowth ([1]; artefin as dendrimer) | neurite outgrowth, single agent in competition assay [1] | overall neuritogenic effect [1] | neurite outgrowth effect of artefin in the presence of ARTN ([1]; artefin 4.2 μM co-incubated with ARTN 2.1 nM, p < 0.001 versus artefin alone) | neurite outgrowth, sequence specificity ([1]; tetramers, 4.2 μM, paired t-test versus untreated control) | neurite outgrowth in NCAM knock down neurons [2] | neurite outgrowth in mock-transfected neurons [2] | concentration of maximum neurite outgrowth [1] [µM] | dose-response of neurite outgrowth ([1]; 0.013–2.1 nM) |
| --- | --- | --- | --- | --- | --- | --- | --- | --- | --- | --- | --- |
| I: RSPHDLSLASLLGAGKK-NH2 / II: RSPHDLSLASLLGAGK / III: RSPHDLSLASLLGAG / IV: RSPHDLSLASLLGAG (amide I:16-IV:C, I:17-II:C, II:16-III:C; C-terminus assumed) [artefin] | 4.2 | more effective (higher length of neurites) than ARTN | 404 % of control | significant increase in neurite outgrowth (p < 0.001) | statistically significant (F = 9.723, p < 0.0001) | eliminated | statistically significant increase in neurite length when compared to the control condition (p < 0.01) | abrogated in neurons where NCAM expression was knocked down (p < 0.001 | promoted the neurite outgrowth in mock-transfected neurons (p < 0.01) | – | – |
| recombinant human Artemin (ARTN) (ligand, UniProt Q5T4W7 108-220, looked up, Artemin (ARTN), human, UniProt D3DPX9; source: bought: R&D Systems) AGGPGSRARAAGARGCRLRSQLVPVRALGLGHRSDELVRFRFCSGSCRRARSPHDLSLASLLGAGALRPPPGSRPVSQPCCRPTRYEAVSFMDVNSTWRTVDRLSATACGCLG | – | – | 210 % of control | equivalent to that of the control condition | statistically significant (F = 5.069, p < 0.01) | – | – | completely abolished the neurite outgrowth effect of ARTN | significantly higher level of neurite outgrowth compared to unstimulated controls (p < 0.05 | 4.2e-05 | bell-shaped dose-response manner |
